Data: ChEMBL document CHEMBL3864167, “Structure-Activity Relationship, Drug Metabolism and Pharmacokinetics Properties Optimization, and in Vivo Studies of New Brain Penetrant Triple T-Type Calcium Channel Blockers” (J Med Chem, 2016)

Experiments:
[1] = target: Voltage-dependent T-type calcium channel subunit alpha-1I (Homo sapiens, UniProt Q9P0X4); assay: Channel blocking activity at recombinant human CaV 3.3 channel expressed in HEK293 cells assessed as inhibition of Ca2+ flux preincubated for 3 mins followed by CaCl2 addition by fluo-4 dye-based FLIPR assay; type: cell-based
[2] = target: Voltage-dependent T-type calcium channel subunit alpha-1G (Homo sapiens, UniProt O43497); assay: Channel blocking activity at recombinant human CaV 3.1 channel expressed in HEK293 cells assessed as inhibition of Ca2+ flux preincubated for 3 mins followed by CaCl2 addition by fluo-4 dye-based FLIPR assay; type: cell-based
[3] = target: Voltage-dependent T-type calcium channel subunit alpha-1H (Homo sapiens, UniProt O95180); assay: Channel blocking activity at recombinant human CaV 3.2 channel expressed in HEK293 cells assessed as inhibition of Ca2+ flux preincubated for 3 mins followed by CaCl2 addition by fluo-4 dye-based FLIPR assay; type: cell-based
[4] = Intrinsic clearance in human liver microsomes at 1 uM up to 15 mins in presence of NADPH by LC-MS-MS analysis; type: ADME; conditions: read-out: CLH

Sequence of Voltage-dependent T-type calcium channel subunit alpha-1H (O95180 whole entry): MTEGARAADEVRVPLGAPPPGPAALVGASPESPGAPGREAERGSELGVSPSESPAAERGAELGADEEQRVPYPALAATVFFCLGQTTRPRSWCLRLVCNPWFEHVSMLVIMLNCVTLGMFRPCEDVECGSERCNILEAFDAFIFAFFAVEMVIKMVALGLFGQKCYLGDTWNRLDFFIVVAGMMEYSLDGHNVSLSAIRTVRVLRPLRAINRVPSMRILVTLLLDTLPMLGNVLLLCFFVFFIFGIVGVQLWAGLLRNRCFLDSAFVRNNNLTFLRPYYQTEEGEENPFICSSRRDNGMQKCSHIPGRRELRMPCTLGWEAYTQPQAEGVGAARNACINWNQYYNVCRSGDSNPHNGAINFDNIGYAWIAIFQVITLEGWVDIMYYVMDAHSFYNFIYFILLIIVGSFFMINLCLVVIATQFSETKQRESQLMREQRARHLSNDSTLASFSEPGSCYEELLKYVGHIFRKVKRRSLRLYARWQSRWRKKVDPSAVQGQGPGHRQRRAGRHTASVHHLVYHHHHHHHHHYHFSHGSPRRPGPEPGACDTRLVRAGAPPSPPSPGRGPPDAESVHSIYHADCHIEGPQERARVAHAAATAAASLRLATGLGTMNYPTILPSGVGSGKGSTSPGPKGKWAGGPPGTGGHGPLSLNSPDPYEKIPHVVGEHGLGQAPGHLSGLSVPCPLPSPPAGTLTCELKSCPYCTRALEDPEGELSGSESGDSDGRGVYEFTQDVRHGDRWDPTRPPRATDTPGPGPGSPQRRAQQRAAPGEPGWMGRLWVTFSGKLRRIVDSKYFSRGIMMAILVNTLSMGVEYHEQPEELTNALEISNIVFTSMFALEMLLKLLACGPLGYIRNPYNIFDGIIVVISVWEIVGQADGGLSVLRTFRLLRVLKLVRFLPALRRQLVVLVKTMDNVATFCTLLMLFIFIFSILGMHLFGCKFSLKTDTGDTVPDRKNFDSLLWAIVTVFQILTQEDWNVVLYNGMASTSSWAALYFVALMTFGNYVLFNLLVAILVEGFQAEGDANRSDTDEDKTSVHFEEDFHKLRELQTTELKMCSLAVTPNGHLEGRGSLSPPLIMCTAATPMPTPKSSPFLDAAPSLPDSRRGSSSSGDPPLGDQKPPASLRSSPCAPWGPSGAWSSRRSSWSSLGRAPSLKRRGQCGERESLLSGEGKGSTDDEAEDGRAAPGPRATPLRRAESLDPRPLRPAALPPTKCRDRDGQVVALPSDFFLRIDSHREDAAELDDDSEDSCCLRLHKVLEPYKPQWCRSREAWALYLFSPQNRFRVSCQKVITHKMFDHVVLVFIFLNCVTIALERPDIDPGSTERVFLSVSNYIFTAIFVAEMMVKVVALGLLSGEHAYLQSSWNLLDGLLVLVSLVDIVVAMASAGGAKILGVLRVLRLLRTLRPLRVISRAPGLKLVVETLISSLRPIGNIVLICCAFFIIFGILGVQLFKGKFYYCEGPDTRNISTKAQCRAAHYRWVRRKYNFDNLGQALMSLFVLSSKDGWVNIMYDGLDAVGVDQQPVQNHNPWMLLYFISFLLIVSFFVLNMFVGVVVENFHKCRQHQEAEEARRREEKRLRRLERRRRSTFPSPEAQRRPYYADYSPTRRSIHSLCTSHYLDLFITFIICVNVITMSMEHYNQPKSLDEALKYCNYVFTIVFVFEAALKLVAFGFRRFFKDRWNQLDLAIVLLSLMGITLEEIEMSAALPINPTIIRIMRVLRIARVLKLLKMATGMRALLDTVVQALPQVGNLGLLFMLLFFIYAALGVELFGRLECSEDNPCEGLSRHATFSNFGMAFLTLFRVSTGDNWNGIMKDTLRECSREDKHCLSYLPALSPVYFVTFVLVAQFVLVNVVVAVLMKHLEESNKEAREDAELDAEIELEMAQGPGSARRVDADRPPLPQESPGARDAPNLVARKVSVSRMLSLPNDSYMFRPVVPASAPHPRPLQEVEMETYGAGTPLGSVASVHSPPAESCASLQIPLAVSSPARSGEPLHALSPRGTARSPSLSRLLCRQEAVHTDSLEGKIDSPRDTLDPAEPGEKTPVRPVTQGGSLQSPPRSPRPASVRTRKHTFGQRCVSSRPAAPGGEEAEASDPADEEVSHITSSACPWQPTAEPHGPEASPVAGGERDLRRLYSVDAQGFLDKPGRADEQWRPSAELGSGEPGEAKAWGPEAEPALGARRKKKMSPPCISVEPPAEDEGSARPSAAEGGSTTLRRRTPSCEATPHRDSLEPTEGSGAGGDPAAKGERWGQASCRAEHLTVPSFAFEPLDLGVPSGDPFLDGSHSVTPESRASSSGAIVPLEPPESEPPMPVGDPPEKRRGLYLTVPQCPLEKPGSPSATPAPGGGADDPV
Sequence of Voltage-dependent T-type calcium channel subunit alpha-1I (Q9P0X4 whole entry): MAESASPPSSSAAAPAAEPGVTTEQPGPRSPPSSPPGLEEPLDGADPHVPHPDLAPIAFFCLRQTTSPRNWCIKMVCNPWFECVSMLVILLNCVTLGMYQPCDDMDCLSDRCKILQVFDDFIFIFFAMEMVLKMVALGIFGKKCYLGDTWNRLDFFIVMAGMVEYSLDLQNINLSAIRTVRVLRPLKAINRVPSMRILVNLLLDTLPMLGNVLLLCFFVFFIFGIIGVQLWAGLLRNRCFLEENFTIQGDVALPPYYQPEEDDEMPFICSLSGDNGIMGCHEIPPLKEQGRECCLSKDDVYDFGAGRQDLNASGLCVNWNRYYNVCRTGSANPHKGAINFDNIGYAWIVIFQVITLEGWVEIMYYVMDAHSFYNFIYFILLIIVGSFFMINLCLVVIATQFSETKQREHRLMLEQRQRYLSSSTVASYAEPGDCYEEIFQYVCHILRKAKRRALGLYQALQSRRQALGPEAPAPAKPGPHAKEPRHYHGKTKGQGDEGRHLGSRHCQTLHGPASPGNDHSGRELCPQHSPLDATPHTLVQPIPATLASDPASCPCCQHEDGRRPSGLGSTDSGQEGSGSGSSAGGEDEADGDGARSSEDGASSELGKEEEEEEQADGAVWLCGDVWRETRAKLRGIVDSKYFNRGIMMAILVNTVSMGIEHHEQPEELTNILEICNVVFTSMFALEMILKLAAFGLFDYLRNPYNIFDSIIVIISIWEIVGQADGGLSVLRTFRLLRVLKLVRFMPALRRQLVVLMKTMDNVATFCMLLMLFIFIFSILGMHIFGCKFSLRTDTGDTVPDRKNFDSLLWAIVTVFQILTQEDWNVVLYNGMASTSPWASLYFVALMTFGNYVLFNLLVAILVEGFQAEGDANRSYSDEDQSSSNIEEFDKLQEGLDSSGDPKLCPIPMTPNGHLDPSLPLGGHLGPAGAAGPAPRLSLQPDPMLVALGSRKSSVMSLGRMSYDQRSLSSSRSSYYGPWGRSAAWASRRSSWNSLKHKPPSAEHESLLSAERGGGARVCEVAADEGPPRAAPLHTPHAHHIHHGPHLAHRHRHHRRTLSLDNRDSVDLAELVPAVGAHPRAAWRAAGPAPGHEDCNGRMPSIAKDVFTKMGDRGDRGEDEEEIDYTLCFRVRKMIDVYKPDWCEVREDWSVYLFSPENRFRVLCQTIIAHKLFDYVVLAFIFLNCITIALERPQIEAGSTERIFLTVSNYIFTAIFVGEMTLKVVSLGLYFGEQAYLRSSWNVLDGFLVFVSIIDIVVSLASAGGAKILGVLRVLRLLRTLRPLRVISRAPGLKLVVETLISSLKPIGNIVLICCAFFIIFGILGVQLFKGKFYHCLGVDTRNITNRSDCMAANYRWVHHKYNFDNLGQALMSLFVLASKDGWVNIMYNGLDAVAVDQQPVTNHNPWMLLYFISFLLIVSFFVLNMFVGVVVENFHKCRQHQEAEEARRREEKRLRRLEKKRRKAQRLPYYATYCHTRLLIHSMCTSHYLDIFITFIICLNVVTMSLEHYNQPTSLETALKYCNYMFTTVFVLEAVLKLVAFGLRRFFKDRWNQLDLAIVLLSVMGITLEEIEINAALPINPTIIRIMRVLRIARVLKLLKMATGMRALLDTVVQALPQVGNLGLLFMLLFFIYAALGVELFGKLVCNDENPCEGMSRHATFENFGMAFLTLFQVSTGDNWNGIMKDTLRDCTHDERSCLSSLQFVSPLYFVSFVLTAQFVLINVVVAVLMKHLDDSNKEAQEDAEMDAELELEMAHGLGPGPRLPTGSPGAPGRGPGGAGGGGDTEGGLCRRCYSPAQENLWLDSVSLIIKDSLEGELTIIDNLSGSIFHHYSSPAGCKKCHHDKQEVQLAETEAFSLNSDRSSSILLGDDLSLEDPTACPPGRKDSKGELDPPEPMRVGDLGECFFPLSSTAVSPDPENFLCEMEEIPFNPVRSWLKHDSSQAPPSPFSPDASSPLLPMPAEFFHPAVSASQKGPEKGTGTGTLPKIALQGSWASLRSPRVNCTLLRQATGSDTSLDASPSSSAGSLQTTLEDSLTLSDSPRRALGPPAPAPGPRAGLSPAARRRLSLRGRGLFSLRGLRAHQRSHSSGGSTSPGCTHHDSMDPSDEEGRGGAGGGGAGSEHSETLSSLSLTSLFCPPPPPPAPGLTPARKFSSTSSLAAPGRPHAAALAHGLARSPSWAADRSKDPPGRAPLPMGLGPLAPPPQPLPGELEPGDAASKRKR

SMILES	IC50 [1] [nM]	IC50 [2] [nM]	IC50 [3] [nM]	microsomal CLint at 1 µM [4] [µL/min/mg]
C[C@@H]1CN(Cc2ccccc2)c2ccccc2[C@H](C)N1C(=O)NCc1ccccc1	2	5	17	–
C[C@@H]1c2ccccc2N(Cc2ccccc2)C[C@H](C)N1C(=O)NCc1ccccc1	641	262	358	–
C[C@@H]1c2ccncc2N(Cc2ccccc2)C[C@H](C)N1C(=O)NCc1ccccc1	> 10000	> 10000	> 11000	–
O=C(NCc1ccccc1)N1CCN(Cc2ccccc2)c2ccccc2C1	214	305	392	> 1250
C[C@H]1c2ccccc2N(Cc2ccccc2)CCN1C(=O)NCc1ccccc1 (racemic)	164	193	241	> 1250
C[C@@H]1CN(Cc2cccc(F)c2)c2ccccc2[C@H](C)N1C(=O)Nc1cccnc1 (racemic)	5	8	14	> 1250
C[C@@H]1CN(Cc2ccc(F)cc2)c2ccccc2[C@H](C)N1C(=O)Nc1cccnc1 (racemic)	7	25	31	> 1250
C[C@@H]1C(=O)N(Cc2ccccc2)c2ccccc2[C@H](C)N1C(=O)NCc1ccccc1 (racemic)	259	304	682	> 1250
COc1cc2c(cc1F)N(Cc1ccccc1)C[C@@H](C)N(C(=O)Nc1cccnc1)[C@H]2C (racemic)	73	370	414	–
Cc1ccc2c(c1)N(Cc1ccccc1)C[C@@H](C)N(C(=O)Nc1cccnc1)[C@H]2C (racemic)	74	227	231	–
C[C@@H]1CN(C(=O)NCc2ccccc2)[C@@H](C)c2ccccc2N1Cc1ccccc1 (racemic)	326	211	198	–
C[C@@H]1CN(Cc2cccc(F)c2F)c2ccccc2[C@H](C)N1C(=O)NCc1ccccc1 (racemic)	4	5	9	–
C[C@@H]1CN(CC2CCCC2)c2ccccc2[C@H](C)N1C(=O)Nc1cccnc1 (racemic)	14	23	62	1150
COc1cccc2c1[C@H](C)N(C(=O)Nc1cccnc1)[C@H](C)CN2Cc1ccccc1 (racemic)	130	188	305	–
C[C@@H]1CN(Cc2cnc(C(F)(F)F)s2)c2ccccc2[C@H](C)N1C(=O)NCc1ccccc1 (racemic)	6	13	15	> 1250
C[C@@H]1CN(Cc2ccncc2)c2ccccc2[C@H](C)N1C(=O)NCc1ccccc1 (racemic)	1710	> 7260	> 8580	–
C[C@@H]1CN(Cc2ccccc2)c2ccccc2[C@H](C)N1S(=O)(=O)c1cn(C)cn1 (racemic)	210	576	1490	–
C[C@@H]1CN(Cc2ccccc2F)c2ccccc2[C@H](C)N1C(=O)Nc1cccnc1 (racemic)	5	4	11	1200
C[C@@H]1CN(Cc2ccccc2)c2cncnc2[C@H](C)N1C(=O)NCc1ccccc1 (racemic)	1000	> 8500	> 6400	–
COc1cccc2c1N(Cc1ccccc1)C[C@@H](C)N(C(=O)Nc1cccnc1)[C@H]2C (racemic)	> 9000	> 5300	> 6500	–
C[C@@H]1CN(C(=O)c2ccccc2)c2ccccc2[C@H](C)N1C(=O)NCc1ccccc1 (racemic)	> 10000	6070	> 11500	–
C[C@@H]1CN(Cc2ccc(C(F)(F)F)o2)c2ccccc2[C@H](C)N1C(=O)Nc1cccnc1 (racemic)	9	4	14	> 1250
COc1ccc(CNC(=O)N2[C@H](C)CN(Cc3ccccc3)c3ccccc3[C@@H]2C)cc1 (racemic)	6	8	14	> 1250
C[C@@H]1CN(Cc2ccccc2)c2ccccc2[C@H](C)N1C(=O)OCc1ccccc1 (racemic)	473	420	841	–
C[C@@H]1CN(CCOC(C)(C)C)c2ccccc2[C@H](C)N1C(=O)NCc1ccccc1 (racemic)	12	35	44	–
COc1ccc(CN2C[C@@H](C)N(C(=O)NCc3ccccc3)[C@@H](C)c3ccccc32)cn1 (racemic)	10	45	33	> 1250

SMILES	IC50 [1] [nM]	IC50 [2] [nM]	IC50 [3] [nM]	microsomal CLint at 1 µM [4] [µL/min/mg]
C[C@@H]1CN(Cc2ccccc2)c2ccccc2[C@H](C)N1C(=O)CCc1cccnc1 (racemic)	10	31	38	> 1250
C[C@@H]1CN(Cc2cccc(C(F)(F)F)n2)c2ccccc2[C@H](C)N1C(=O)NCc1ccccc1 (racemic)	14	25	42	> 1250
CCN1C[C@@H](C)N(C(=O)NCc2ccccc2)[C@@H](C)c2ccccc21 (racemic)	139	754	922	> 1250
C[C@H]1c2ccccc2N(Cc2ccccc2)[C@@H](C)CN1C(=O)NCc1ccccc1 (racemic)	1000	293	464	–
C[C@@H]1CN(Cc2cccnc2)c2ccccc2[C@H](C)N1C(=O)NCc1ccccc1 (racemic)	95	476	500	–
C[C@@H]1CN(Cc2ccccc2)c2ccccc2[C@H](C)N1C(=O)N(C)Cc1ccccc1 (racemic)	892	457	835	–
C[C@@H]1CN(Cc2ccccc2)c2ccncc2[C@H](C)N1C(=O)NCc1ccccc1 (racemic)	> 8740	6280	> 11000	–
C[C@@H]1CN(Cc2ccccc2)c2c(cnn2C)[C@H](C)N1C(=O)NCc1ccccc1 (racemic)	> 10000	> 9400	> 7300	–
C[C@@H]1CN(S(=O)(=O)c2ccccc2)c2ccccc2[C@H](C)N1C(=O)Nc1cccnc1 (racemic)	1810	> 10000	4690	–
C[C@@H]1CN(Cc2ccccc2)c2ccccc2CN1C(=O)NCc1ccccc1 (racemic)	26	102	141	> 1250
C[C@@H]1CN(Cc2ccccc2)c2nnccc2[C@H](C)N1C(=O)NCc1ccccc1 (racemic)	206	1140	695	–
C[C@@H]1CN(Cc2ccccc2)c2cccnc2[C@H](C)N1C(=O)NCc1ccccc1 (racemic)	91	597	212	–
C[C@@H]1CN(Cc2ccc(F)c(F)c2)c2ccccc2[C@H](C)N1C(=O)Nc1cccnc1 (racemic)	6	13	18	> 1250
C[C@@H]1CN(Cc2ccc(C(F)(F)F)o2)c2ccccc2[C@H](C)N1C(=O)NCc1ccccc1 (racemic)	6	7	13	> 1250
C[C@@H]1CN(Cc2ccccc2)c2ccccc2C(=O)N1CCc1ccccc1 (racemic)	1590	676	618	> 1250
C[C@@H]1CN(Cc2cnc(C(F)(F)F)s2)c2ccccc2[C@H](C)N1C(=O)Nc1cccnc1 (racemic)	33	33	42	> 1250
C[C@@H]1CN(Cc2ccccc2)c2cc(Br)ccc2[C@H](C)N1C(=O)Nc1cccnc1 (racemic)	137	286	428	–
C[C@@H]1CN(Cc2ccccc2)c2ccccc2[C@H](C)N1CC1CCOCC1 (racemic)	> 10000	6110	7410	–
C[C@@H]1CN(Cc2ccccn2)c2ccccc2[C@H](C)N1C(=O)NCc1ccccc1 (racemic)	97	605	479	–
C[C@@H]1CN(Cc2cccnc2F)c2ccccc2[C@H](C)N1C(=O)NCc1ccccc1 (racemic)	10	53	49	> 1250
C[C@H]1CN(Cc2ccccc2)c2ccccc2[C@H](C)N1C(=O)NCc1ccccc1 (racemic)	95	279	340	> 1250
C[C@@H]1CN(Cc2ccccc2)c2ccccc2[C@H](C)N1C(=O)C1CCOCC1 (racemic)	8	24	47	1160
C[C@@H]1CN(Cc2ccccc2)c2cc(S(C)(=O)=O)ccc2[C@H](C)N1C(=O)Nc1cccnc1 (racemic)	> 10000	> 10000	> 8000	–
C[C@@H]1CN(Cc2ccccc2)c2ccccc2[C@H](C)N1C(=O)CN1CCOCC1 (racemic)	7	36	51	> 1250
CC(C)CCN1C[C@@H](C)N(C(=O)Nc2cccnc2)[C@@H](C)c2ccccc21 (racemic)	12	23	91	> 1250
